Source: patent publication US10189816B2, “Substituted pyridines as inhibitors of human immunodeficiency virus replication” (priority 2015, dated 2019)
Like-named read-outs stand apart in the source and are kept apart here.

System: NL-RLuc virus
Assay: Inhibition of HIV replication (NL-RLuc reporter virus in MT-2 cells, luciferase readout)
Assay type: cell-based
Details: Human immunodeficiency virus 1, MT2, 120 h
Method in brief: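 MT-2 cells infected with NL4-3-derived NL-RLuc reporter virus (Renilla luciferase replacing part of nef) with serial compound dilutions, RPMI 1640 + 10% FBS; 5 days. Growth by luciferase; EC50 from median effect equation, ≥2 experiments.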

Row | SMILES | EC50 (read-out: Activity) | EC50 (read-out: EC50 μM)
1 | CCOc1cc(CN2CCc3cc(-c4c(C)nc(C)c([C@H](OC(C)(C)C)C(=O)O)c4N4CCC(C)(C)CC4)ccc3C2)c(F)cc1F [Compound 126, (S)-2-(tert-butoxy)-2-(4-(4,4-dimethylpiperidin-1-yl)-5-(2-(5-ethoxy-2,4-difluorobenzyl)-1,2,3,4-tetrahydroisoquinolin-6-yl)-2,6-dimethylpyridin-3-yl)acetic acid] | < 0.1 µM | 
2 | Cc1nc(C)c([C@H](OC(C)(C)C)C(=O)O)c(N2CCC(C)(C)CC2)c1-c1ccc2c(c1)CCN(Cc1ccc(Cl)c(Cl)c1)C2 [Compound 127, (S)-2-(tert-butoxy)-2-(5-(2-(3,4-dichlorobenzyl)-1,2,3,4-tetrahydroisoquinolin-6-yl)-4-(4,4-dimethylpiperidin-1-yl)-2,6-dimethylpyridin-3-yl)acetic acid] | < 0.1 µM | 
3 | Cc1nc(C)c([C@H](OC(C)(C)C)C(=O)O)c(N2CCC(C)(C)CC2)c1-c1ccc2c(c1)CCN(Cc1c(Cl)cccc1Cl)C2 [Compound 128, (S)-2-(tert-butoxy)-2-(5-(2-(2,6-dichlorobenzyl)-1,2,3,4-tetrahydroisoquinolin-6-yl)-4-(4,4-dimethylpiperidin-1-yl)-2,6-dimethylpyridin-3-yl)acetic acid] | < 0.1 µM | 
4 | COc1cccc(CN2CCc3cc(-c4c(C)nc(C)c([C@H](OC(C)(C)C)C(=O)O)c4N4CCC(C)(C)CC4)ccc3C2)c1Cl [Compound 129, (S)-2-(tert-butoxy)-2-(5-(2-(2-chloro-3-methoxybenzyl)-1,2,3,4-tetrahydroisoquinolin-6-yl)-4-(4,4-dimethylpiperidin-1-yl)-2,6-dimethylpyridin-3-yl)acetic acid] | < 0.1 µM | 0.003 µM
5 | Cc1nc(C)c([C@H](OC(C)(C)C)C(=O)O)c(N2CCC(C)(C)CC2)c1-c1ccc2c(c1)CCN(Cc1cccc(Cl)c1F)C2 [Compound 130, (S)-2-(tert-butoxy)-2-(5-(2-(3-chloro-2-fluorobenzyl)-1,2,3,4-tetrahydroisoquinolin-6-yl)-4-(4,4-dimethylpiperidin-1-yl)-2,6-dimethylpyridin-3-yl)acetic acid] | < 0.1 µM | 
6 | Cc1cc(Cl)ccc1CN1CCc2cc(-c3c(C)nc(C)c([C@H](OC(C)(C)C)C(=O)O)c3N3CCC(C)(C)CC3)ccc2C1 [Compound 131, (S)-2-(tert-butoxy)-2-(5-(2-(4-chloro-2-methylbenzyl)-1,2,3,4-tetrahydroisoquinolin-6-yl)-4-(4,4-dimethylpiperidin-1-yl)-2,6-dimethylpyridin-3-yl)acetic acid] | < 0.1 µM | 
7 | Cc1ccc(CN2CCc3cc(-c4c(C)nc(C)c([C@H](OC(C)(C)C)C(=O)O)c4N4CCC(C)(C)CC4)ccc3C2)cc1Cl [Compound 132, (S)-2-(tert-butoxy)-2-(5-(2-(3-chloro-4-methylbenzyl)-1,2,3,4-tetrahydroisoquinolin-6-yl)-4-(4,4-dimethylpiperidin-1-yl)-2,6-dimethylpyridin-3-yl)acetic acid] | < 0.1 µM | 
8 | Cc1ccc(Cl)cc1CN1CCc2cc(-c3c(C)nc(C)c([C@H](OC(C)(C)C)C(=O)O)c3N3CCC(C)(C)CC3)ccc2C1 [Compound 133, (S)-2-(tert-butoxy)-2-(5-(2-(5-chloro-2-methylbenzyl)-1,2,3,4-tetrahydroisoquinolin-6-yl)-4-(4,4-dimethylpiperidin-1-yl)-2,6-dimethylpyridin-3-yl)acetic acid] | < 0.1 µM | 
9 | Cc1cc(CN2CCc3cc(-c4c(C)nc(C)c([C@H](OC(C)(C)C)C(=O)O)c4N4CCC(C)(C)CC4)ccc3C2)ccc1Cl [Compound 134, (S)-2-(tert-butoxy)-2-(5-(2-(4-chloro-3-methylbenzyl)-1,2,3,4-tetrahydroisoquinolin-6-yl)-4-(4,4-dimethylpiperidin-1-yl)-2,6-dimethylpyridin-3-yl)acetic acid] | < 0.1 µM | 0.012 µM
10 | Cc1nc(C)c([C@H](OC(C)(C)C)C(=O)O)c(N2CCC(C)(C)CC2)c1-c1ccc2c(c1)CCN(Cc1c(F)cc(Cl)cc1F)C2 [Compound 135, (S)-2-(tert-butoxy)-2-(5-(2-(4-chloro-2,6-difluorobenzyl)-1,2,3,4-tetrahydroisoquinolin-6-yl)-4-(4,4-dimethylpiperidin-1-yl)-2,6-dimethylpyridin-3-yl)acetic acid] | < 0.1 µM | 
11 | Cc1nc(C)c([C@H](OC(C)(C)C)C(=O)O)c(N2CCC(C)(C)CC2)c1-c1ccc2c(c1)CCN(Cc1c(F)cccc1Cl)C2 [Compound 136, (S)-2-(tert-butoxy)-2-(5-(2-(2-chloro-6-fluorobenzyl)-1,2,3,4-tetrahydroisoquinolin-6-yl)-4-(4,4-dimethylpiperidin-1-yl)-2,6-dimethylpyridin-3-yl)acetic acid] | < 0.1 µM | 
12 | COc1ccc(CN2CCc3cc(-c4c(C)nc(C)c([C@H](OC(C)(C)C)C(=O)O)c4N4CCC(C)(C)CC4)ccc3C2)cc1Cl [Compound 137, (S)-2-(tert-butoxy)-2-(5-(2-(3-chloro-4-methoxybenzyl)-1,2,3,4-tetrahydroisoquinolin-6-yl)-4-(4,4-dimethylpiperidin-1-yl)-2,6-dimethylpyridin-3-yl)acetic acid] | < 0.1 µM | 
13 | COc1cc(CN2CCc3cc(-c4c(C)nc(C)c([C@H](OC(C)(C)C)C(=O)O)c4N4CCC(C)(C)CC4)ccc3C2)ccc1Cl [Compound 138, (S)-2-(tert-butoxy)-2-(5-(2-(4-chloro-3-methoxybenzyl)-1,2,3,4-tetrahydroisoquinolin-6-yl)-4-(4,4-dimethylpiperidin-1-yl)-2,6-dimethylpyridin-3-yl)acetic acid] | < 0.1 µM | 
14 | COc1ccc(C(C)C)cc1CN1CCc2cc(-c3c(C)nc(C)c([C@H](OC(C)(C)C)C(=O)O)c3N3CCC(C)(C)CC3)ccc2C1 [Compound 139, (S)-2-(tert-butoxy)-2-(4-(4,4-dimethylpiperidin-1-yl)-5-(2-(5-isopropyl-2-methoxybenzyl)-1,2,3,4-tetrahydroisoquinolin-6-yl)-2,6-dimethylpyridin-3-yl)acetic acid] | < 0.1 µM | 0.03 µM
15 | COc1cc(CN2CCc3cc(-c4c(C)nc(C)c([C@H](OC(C)(C)C)C(=O)O)c4N4CCC(C)(C)CC4)ccc3C2)ccc1C [Compound 140, (S)-2-(tert-butoxy)-2-(4-(4,4-dimethylpiperidin-1-yl)-5-(2-(3-methoxy-4-methylbenzyl)-1,2,3,4-tetrahydroisoquinolin-6-yl)-2,6-dimethylpyridin-3-yl)acetic acid] | < 0.1 µM | 
16 | COc1ccc(CN2CCc3cc(-c4c(C)nc(C)c([C@H](OC(C)(C)C)C(=O)O)c4N4CCC(C)(C)CC4)ccc3C2)cc1C [Compound 141, (S)-2-(tert-butoxy)-2-(4-(4,4-dimethylpiperidin-1-yl)-5-(2-(4-methoxy-3-methylbenzyl)-1,2,3,4-tetrahydroisoquinolin-6-yl)-2,6-dimethylpyridin-3-yl)acetic acid] | < 0.1 µM | 
17 | COc1c(F)cccc1CN1CCc2cc(-c3c(C)nc(C)c([C@H](OC(C)(C)C)C(=O)O)c3N3CCC(C)(C)CC3)ccc2C1 [Compound 142, (S)-2-(tert-butoxy)-2-(4-(4,4-dimethylpiperidin-1-yl)-5-(2-(3-fluoro-2-methoxybenzyl)-1,2,3,4-tetrahydroisoquinolin-6-yl)-2,6-dimethylpyridin-3-yl)acetic acid] | < 0.1 µM | 
